Source: patent publication US12718601B2, “Using machine learning and/or neural networks to validate stem cells and their derivatives (2-D cells and 3-D tissues) for use in cell therapy and tissue engineered products” (The United States of America, as represented by the …, priority 2018, dated 2026)

Assays:
Format in all cases: cell-based, human
iRPE [1] = assay: QBAM imaging of drug-treated iRPE (image absorbance); settings: Healthy-1 and Healthy-2 iRPE, 8-week culture, weekly QBAM imaging
Text: iRPE from each healthy donor (Healthy-1, Healthy-2) were imaged to determine if QBAM imaging affected cell maturation and could measure a large range in variation of iRPE pigmentation. This was done using three culture conditions: (1) control iRPE (no treatment), (2) iRPE treated with a known inducer of RPE maturation (Aphidicolin), and (3) iRPE treated with a known inhibitor of RPE maturation (hedgehog pathway inhibitor-4, HPI4).
Following differentiation, iRPE from donors Healthy-1 and Healthy-2 were placed on a 12-well 0.4 μm polycarbonate transwell plate (Corning, 3401) at a seeding density of 500,000 cells/ml in 0.5 ml. Only six of the 12 wells were used to minimize the time spent outside of the incubator while imaging. QBAM imaging and drug treatments started two or one weeks after seeding for Healthy-1 and Healthy-2 iRPE, respectively. For each culture plate, two of the six wells were treated with either 3.0 μmol/L Aphidicolin (Sigma Aldrich, A0781-10 MG), 30.0 μM HPI4 (Hedgehog Pathway Inhibitor 4, Sigma Aldrich, H4541-25 MG), or no additives to the RPEMM culture medium. RPEMM was changed three times a week and imaged on the same day every week immediately after medium change. […] For Healthy-2 and Healthy-1, a total of six plates were prepared, with six wells occupied in each plate, yielding 36 total wells imaged and analyzed. […]

iRPE [2] = assay: Single cell image features from DNN-S segmented QBAM images of drug-treated iRPE; settings: for CPI_IntegratedIntensityEdge.K (Intensity 10), Mean / ML_MinIntensity.Mean (Intensity 1), Mean: Healthy-2 iRPE, 3.0 μmol/L Aphidicolin or 30.0 μM HPI4
Description: QBAM imaging and live cell segmentation allows for hundreds of cell image features to be measured and tracked non-invasively on individual cells throughout iRPE maturation. Thus, the trained DNN-S was used to segment QBAM images of living iRPE (Healthy-1 and Healthy-2 donors) treated with Aphidicolin, HPI-4, or nothing (control). Previously published cell image features and intensity metrics known to correlate to RPE maturation and health were then assessed for significance. […] Importantly, this technique allows for unprecedented hierarchical granularity to the data; enabling not just whole well “bulk” tissue measurements, but also as a function of field of view or at an individual cell level Clustering of treatments based off of two features known to be important to RPE maturation and health, cell area and mean cell intensity were performed. Cell minimum intensity, a new metric related to iRPE function identified using SML, is described further below.
Following differentiation, iRPE from donors Healthy-1 and Healthy-2 were placed on a 12-well 0.4 μm polycarbonate transwell plate (Corning, 3401) at a seeding density of 500,000 cells/ml in 0.5 ml. Only six of the 12 wells were used to minimize the time spent outside of the incubator while imaging. QBAM imaging and drug treatments started two or one weeks after seeding for Healthy-1 and Healthy-2 iRPE, respectively. For each culture plate, two of the six wells were treated with either 3.0 μmol/L Aphidicolin (Sigma Aldrich, A0781-10 MG), 30.0 μM HPI4 (Hedgehog Pathway Inhibitor 4, Sigma Aldrich, H4541-25 MG), or no additives to the RPEMM culture medium. RPEMM was changed three times a week and imaged on the same day every week immediately after medium change. To prevent the culture plate lid from fogging during imaging, culture medium in wells were replaced with room temperature RPEMM (with drugs if needed) immediately before imaging since room temperature medium minimized condensation. RPEMM without drug was added to a well without any cells in it to capture the bright reference image for QBAM imaging. For each well, a 4×3 grid of overlapping images were captured (10-15% image overlap) for image stitching using a Zeiss AxioImager M2 microscope with a 10× objective. For Healthy-2 and Healthy-1, a total of six plates were prepared, with six wells occupied in each plate, yielding 36 total wells imaged and analyzed. The iRPE from AMD samples were previously reported by Sharma et al (Sharma et al., 2018), and the iRPE from OCA donors were cultured as described above, but were only imaged after they had matured and were fixed with PFA. In total five well replicates of OCA8, six replicates from OCA9, four replicates of OCA26, eight replicates of OCA71, and four replicates of OCA103 were imaged. For AMD data 1 replicate of AMD1 Clone A, 5 replicates of AMD1 Clone B, 1 Replicate of AMD2 Clone A, 5 replicates of AMD2 Clone B, 1 replicate of AMD2 Clone C, 1 replicate of AMD3 Clone A, 5 replicates of AMD3 Clone B, and 1 replicate of AMD3 Clone C were imaged.
No preprocessing was performed on QBAM images before they were processed with the DNN-S. The structure of the DNN-S was the same as that used to segment the fluorescent images, except the input image had three channels instead of one. The three channels were three QBAM images captured of the same field of view, but each QBAM image was captured at a different wavelength (488 nm, 561 nm, and 633 nm).
In order to extract as many cell-level features as possible, multiple widely were leveraged used image libraries for feature extraction that have been integrated into WIPP. While the feature values for the same feature definitions might vary, they provide insights on the amount of variation introduced not only by image acquisition but also by image processing. […]

iRPE [3] = assay: mRNA and protein expression of maturation markers in iRPE; settings: Aphidicolin treated iRPE compared with HPI4 treated iRPE
Description: Tissue preparation for immunohistochemistry was done by placing wells in 4% (mass/volume) paraformaldehyde (Electron Microscopy Science, 157-4-100) for 20 minutes. Immunohistochemistry blocking solution (IBS) consisted of 500 ml of 1× DPBS (Dulbecco's phosphate-buffered saline, Life Technologies, 14190250), 5% (mass/volume) bovine serum albumin (Sigma Aldrich, A3311), 0.5% (mass/volume) Triton X-100 (Sigma Aldrich, X100-100ML), and 0.5% (mass/volume) TWEEN20 (Sigma Aldrich, P2287-100ML). Fixed cells were washed with IBS three times and permeabilized for 2 hours with IBS at room temperature. Cells were then stained with the following primary antibody for 1 hour at room temperature: RPE65 (anti-RPE65 monoclonal antibody [1:300, Abcam, ab13826), Ezrin (monoclonal anti-ezrin antibody, 1:100, Sigma Aldrich, E8897), or GT335 (anti-polyglutamylation modification monoclonal antibody, 1:1000, Adipogen, AG-20B-0020). […] RNA was quantified using an ND-1000 spectrophotometer (Nanodrop Technologies) and the manufacturers protocol. cDNA synthesis was performed using the Script cDNA Synthesis Kit (Bio-Rad, 1708891) and the manufacturer provided protocols. […] An HPI4 well had to be excluded due to extremely low RNA extraction from the well and an insufficient quantity of cDNA being amplified to measured. […] Data was analyzed using R software (R Development Core Team, 2011).

iRPE [4] = assay: Electrophysiological measurements (TEP and TER) of iRPE monolayers; settings: treated iRPE relative to control
Description: Electrical resistance measurements used for prediction of the iRPE monolayers were measured using an EVOM2 and EndOhm chamber (World Precision Instruments, EVOM2 and ENDOHM-12 respectively). Each line was measured for its resistance across 12 wells per treatment, per week. Intracellular transepithelial potential and resistance measurements in response to 1 mM potassium (Sigma Aldrich, P5405-1 KG) and 100 μM ATP (Sigma Aldrich, A9187-500 MG) were done identically to that of previous reports (Miyagishima et al., In Pursuit of Authenticity: Induced Pluripotent Stem Cell-Derived Retinal Pigment Epithelium for Clinical Applications, STEM CELLS Transl. Med. 5, 1562-1574 (2016)). Briefly, RPE monolayer cultures derived from iPSC lines were mounted on a modified “Ussing” chamber as described previously (Maminishkis et al., The P2Y2 Receptor Agonist INS37217 Stimulates RPE Fluid Transport In Vitro and Retinal Reattachment, Rat. Invest. Ophthalmol. Vis. Sci. 43, 3555-3566 (2002); Peterson et al., Extracellular ATP Activates Calcium Signaling, Ion, and Fluid Transport in Retinal Pigment Epithelium, J. Neurosci. 17, 2324-2337 (1997)). […] The signals from intracellular microelectrodes were referenced to the basal bath to measure the basolateral membrane potential (Vb) and the apical membrane potential (Va) was calculated by the equation: […]. […]

Compound | image absorbance over time (iRPE [1]) | CPI_IntegratedIntensityEdge.K (Intensity 10), Mean (iRPE [2]; week 2) | ML_MinIntensity.Mean (Intensity 1), Mean (iRPE [2]; week 2) | CPI_IntegratedIntensityEdge.K (Intensity 10), Mean (iRPE [2]; week 3) | ML_MinIntensity.Mean (Intensity 1), Mean (iRPE [2]; week 3) | CPI_IntegratedIntensityEdge.K (Intensity 10), Mean (iRPE [2]; week 4) | CPI_IntegratedIntensityEdge.K (Intensity 10), Mean (iRPE [2]; week 5) | ML_MinIntensity.Mean (Intensity 1), Mean (iRPE [2]; week 5) | CPI_IntegratedIntensityEdge.K (Intensity 10), Mean (iRPE [2]; week 6) | ML_MinIntensity.Mean (Intensity 1), Mean (iRPE [2]; week 6) | CPI_IntegratedIntensityEdge.K (Intensity 10), Mean (iRPE [2]; week 7) | ML_MinIntensity.Mean (Intensity 1), Mean (iRPE [2]; week 7) | mRNA and protein expression of maturation markers (iRPE [3]) | baseline electrical response (TEP and TER) and its change to 1 mM potassium (K+) or 100 μM ATP (iRPE [4]) | mean number of neighbors each iRPE cell had (iRPE [2]; Healthy-1 and Healthy-2 iRPE, across all time points, p<0.001) | ML_MinIntensity.Mean (Intensity 1), Mean (iRPE [2]; week 4)
C[C@@]1(CO)[C@H](O)CC[C@@]2(C)[C@H]1CC[C@H]1C[C@@H]3C[C@@]12CC[C@]3(O)CO [Aphidicolin] | increasing image absorbance | 5.87 | 144.67 | 6.07 | 204.31 | 5.3 | 5.59 | 183.77 | 4.76 | 185.15 | 4.53 | 180.84 | Higher | significantly greater |  | 
N#CC(=C(O)c1ccc(Cl)cc1Cl)c1nc2ccccc2c(=O)[nH]1 [HPI4] | decreasing trend in absorbance | 5.11 | 141.81 | 6.45 | 179.97 | 6.45 | 7.21 | 133.78 | 8.06 | 126.02 | 8.06 | 110.26 |  | significantly lower | significantly lower | 104.78
